Experiments:
[1] = system: Wnt pathway activity (SW480 colon carcinoma cells stably expressing the Sp5-Luc reporter); assay: Wnt pathway activity screening assay (Sp5-Luc reporter gene assay); conditions: Homo sapiens, SW480, Table 4; SW480 cells stably expressing Sp5-Luc reporter, 10-point dose-response from 10 μM, 36 to 48 hours
[2] = system: primary human mesenchymal stem cells (hMSCs); assay: Chondrogenesis screening using primary human mesenchymal stem cells; type: cell-based; conditions: Homo sapiens, Mesenchymal stem cells, hMSC chondrogenesis; for Emax: maximum activity relative to TGF-β3 (10 ng/mL) positive control, read-out: Max. Activity as % TGF-β3 activity; for EC50: concentration required to induce 50% levels of chondrogenesis with TGF-β3 as positive control, read-out: Conc (nM) of 50% TGF-β3 activity
Outline: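 Primary hMSCs at passage 3–6 were treated across compound concentrations, with TGF-β3 as positive control. Chondrogenic nodule area per well was normalized to 3 DMSO wells on the same plate (fold over DMSO, 2–3 replicates). EC50, maximum activity and the dose reaching it were derived.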

CLK3 kinase = CLK3 kinase (Homo sapiens, UniProt P49761); assay: CLK3 kinase activity assay (Z-lyte FRET); type: biochemical; conditions: Z-lyte Ser/Thr 18 peptide, 156 μM ATP, 1 h at room temperature;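 further: kinase activity read as coumarin/fluorescein emission ratio by FRET, unphosphorylated peptide as 0% and phosphorylated peptide as 100% control, values from non-linear regression of dose-response curves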
Sequence of CLK3 kinase (P49761 whole entry): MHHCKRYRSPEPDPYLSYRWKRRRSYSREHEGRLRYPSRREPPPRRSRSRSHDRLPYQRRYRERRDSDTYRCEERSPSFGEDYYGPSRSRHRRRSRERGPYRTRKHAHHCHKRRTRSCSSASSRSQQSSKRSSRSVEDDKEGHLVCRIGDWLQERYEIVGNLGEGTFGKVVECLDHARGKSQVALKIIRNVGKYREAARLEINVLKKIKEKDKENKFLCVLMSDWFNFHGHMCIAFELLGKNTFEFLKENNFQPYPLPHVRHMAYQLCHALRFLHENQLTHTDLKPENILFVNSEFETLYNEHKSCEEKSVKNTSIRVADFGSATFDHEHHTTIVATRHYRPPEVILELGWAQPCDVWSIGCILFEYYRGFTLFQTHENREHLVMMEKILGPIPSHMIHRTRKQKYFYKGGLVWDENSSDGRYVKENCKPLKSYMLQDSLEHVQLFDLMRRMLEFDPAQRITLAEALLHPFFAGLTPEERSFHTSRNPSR

CLK2 kinase = CLK2 kinase (Homo sapiens, UniProt P49760); assay: CLK2 kinase activity assay (Z-lyte FRET); type: biochemical; conditions: Z-lyte Ser/Thr 6 peptide, 60 μM ATP, 1 h at room temperature;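 further: FRET read-out as coumarin to fluorescein emission ratio, unphosphorylated peptide as 0% and phosphorylated peptide as 100% controls, duplicate reactions, non-linear regression fit of dose-response curves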
Sequence of CLK2 kinase (P49760 whole entry): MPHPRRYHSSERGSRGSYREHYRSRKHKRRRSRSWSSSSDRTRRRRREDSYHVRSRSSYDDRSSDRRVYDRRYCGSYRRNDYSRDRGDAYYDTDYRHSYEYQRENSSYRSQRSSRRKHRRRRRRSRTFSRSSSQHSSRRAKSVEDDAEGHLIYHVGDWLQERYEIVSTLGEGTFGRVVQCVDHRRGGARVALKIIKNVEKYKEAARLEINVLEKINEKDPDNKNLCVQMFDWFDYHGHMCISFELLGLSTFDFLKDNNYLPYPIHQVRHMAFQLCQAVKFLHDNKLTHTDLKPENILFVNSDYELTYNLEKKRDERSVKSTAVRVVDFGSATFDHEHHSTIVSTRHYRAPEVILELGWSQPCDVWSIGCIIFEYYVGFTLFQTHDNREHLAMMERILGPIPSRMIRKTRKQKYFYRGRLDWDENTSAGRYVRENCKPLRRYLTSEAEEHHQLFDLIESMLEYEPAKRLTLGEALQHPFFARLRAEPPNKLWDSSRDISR

Structure (SMILES) | EC50 [1] [µM] | EC50 (CLK3 kinase) [µM] | EC50 (CLK2 kinase) [µM] | EC50 [2] [nM] | Emax [2] [%]
CCC(=O)Nc1cncc(-c2ccc3[nH]nc(-c4cc5c(-c6cc(F)cc(CNS(C)(=O)=O)c6)cncc5[nH]4)c3c2)c1 [compound 517] | 0.244 | 0.216 | 0.008 | – | 29.4
CCCC(=O)Nc1cncc(-c2cnc3[nH]nc(-c4cc5c(-c6cc(F)cc(CNS(C)(=O)=O)c6)cncc5[nH]4)c3c2)c1 [compound 518] | 1.68 | 0.039 | 0.007 | – | 36.7
CC(C)C(=O)Nc1cncc(-c2cnc3[nH]nc(-c4cc5c(-c6cc(F)cc(CNS(C)(=O)=O)c6)cncc5[nH]4)c3c2)c1 [compound 519] | > 10 | 0.236 | 0.018 | – | 59.6
CC(C)C(=O)Nc1cncc(-c2cc3c(-c4cc5c(-c6cc(F)cc(CNS(C)(=O)=O)c6)nccc5[nH]4)n[nH]c3cn2)c1 [compound 520] | > 10 | 0.075 | 0.003 | 30 | 79.5
CCCCC(=O)Nc1cncc(-c2cc3c(-c4cc5c(-c6cc(F)cc(CNS(C)(=O)=O)c6)nccc5[nH]4)n[nH]c3cn2)c1 [compound 521] | > 10 | 0.776 | 0.009 | 10 | 111
CC(C)CC(=O)Nc1cncc(-c2cnc3[nH]nc(-c4cc5c(-c6cc(F)cc(CNS(C)(=O)=O)c6)nccc5[nH]4)c3c2)c1 [compound 522] | 1.51 | 0.048 | 0.008 | 300 | 52
CC(C)CC(=O)Nc1cncc(-c2cnc3[nH]nc(-c4cc5c(-c6cc(F)cc(CNS(C)(=O)=O)c6)cncc5[nH]4)c3c2)c1 [compound 523] | 2.51 | 0.081 | 0.009 | – | 45.5
CC(C)CC(=O)Nc1cncc(-c2cc3c(-c4cc5c(-c6cc(F)cc(CNS(C)(=O)=O)c6)cncc5[nH]4)n[nH]c3cn2)c1 [compound 524] | > 10 | 0.198 | 0.015 | – | 24.2
CC(C)CC(=O)Nc1cncc(-c2ccc3[nH]nc(-c4cc5c(-c6cc(F)cc(CNS(C)(=O)=O)c6)nccc5[nH]4)c3n2)c1 [compound 525] | 0.479 | 0.038 | 0.008 | – | 33.1
CS(=O)(=O)NCc1cc(F)cc(-c2cncc3[nH]c(-c4n[nH]c5ccc(-c6cncc(NC(=O)C7CC7)c6)nc45)cc23)c1 [compound 526] | 1.3 | 0.14 | 0.004 | 10 | 82.9

Further lines, with some results ahead:

EC50 [1] [µM] | EC50 (CLK3 kinase) [µM] | EC50 (CLK2 kinase) [µM] | EC50 [2] [nM] | Structure (SMILES) | Emax [2] [%]
0.554 | 0.066 | 0.011 | – | CS(=O)(=O)NCc1cc(F)cc(-c2cncc3[nH]c(-c4n[nH]c5ccc(-c6cncc(NC(=O)C7CCC7)c6)cc45)cc23)c1 [compound 527] | 14.5
3.64 | 0.059 | 0.005 | 300 | CS(=O)(=O)NCc1cc(F)cc(-c2nccc3[nH]c(-c4n[nH]c5ncc(-c6cncc(NC(=O)C7CCC7)c6)cc45)cc23)c1 [compound 528] | 51.6
> 10 | 0.188 | 0.008 | – | CS(=O)(=O)NCc1cc(F)cc(-c2cncc3[nH]c(-c4n[nH]c5cnc(-c6cncc(NC(=O)C7CCC7)c6)cc45)cc23)c1 [compound 529] | 15.5
> 10 | 0.151 | 0.017 | 10 | CS(=O)(=O)NCc1cc(F)cc(-c2nccc3[nH]c(-c4n[nH]c5ccc(-c6cncc(NC(=O)Cc7ccccc7)c6)nc45)cc23)c1 [compound 530] | 110
> 10 | 0.052 | 0.005 | – | CCNCc1cncc(-c2ccc3[nH]nc(-c4cc5c(-c6cc(F)cc(CNS(C)(=O)=O)c6)cncc5[nH]4)c3c2)c1 [compound 531] | 58
> 10 | 0.305 | 0.003 | 300 | CCNCc1cncc(-c2cnc3[nH]nc(-c4cc5c(-c6cc(F)cc(CNS(C)(=O)=O)c6)nccc5[nH]4)c3c2)c1 [compound 532] | 61.2
> 10 | 0.471 | 0.004 | 30 | CS(=O)(=O)NCc1cc(F)cc(-c2nccc3[nH]c(-c4n[nH]c5cnc(-c6cncc(CNCC7CCCC7)c6)cc45)cc23)c1 [compound 534] | 52.3
1.85 | 0.053 | 0.006 | – | CS(=O)(=O)NCc1cc(F)cc(-c2cncc3[nH]c(-c4n[nH]c5ncc(-c6cncc(CN7CCCCC7)c6)cc45)cc23)c1 [compound 535] | 22.7
1.1 | 0.079 | 0.005 | 10 | CS(=O)(=O)NCc1cc(F)cc(-c2nccc3[nH]c(-c4n[nH]c5ccc(-c6cncc(CN7CCCCC7)c6)nc45)cc23)c1 [compound 536] | 50.1
3.99 | 0.329 | 0.013 | – | CS(=O)(=O)NCc1cc(F)cc(-c2nccc3[nH]c(-c4n[nH]c5ncc(-c6cncc(OCc7ccccc7)c6)cc45)cc23)c1 [compound 537] | 20.6
1.03 | 0.058 | 0.002 | 10 | CS(=O)(=O)NCc1cc(F)cc(-c2cncc3[nH]c(-c4n[nH]c5ccc(-c6cncnc6)nc45)cc23)c1 [compound 538] | 106
0.577 | 0.012 | 0.002 | 5000 | CN1CCCCN(C)c2nccc3[nH]c(nc23)-c2n[nH]c3ccc(cc23)-c2cncc(c2)C1 [compound 617] | 231
0.0418 | 0.012 | 0.002 | 200 | c1cc2cc(c1)-c1cncc3[nH]c(nc13)-c1n[nH]c3ccc(cc13)-c1cncc(c1)CNC2 [compound 618] | 558

— patent US20230000842A1, “METHODS OF TREATING CARTILAGE DISORDERS THROUGH INHIBITION OF CLK AND DYRK” (SAMUMED, LLC, priority 2019, published 2023)
